Tests used:
[1] = biological target: GSK3β (Homo sapiens, UniProt P49841); experiment: Kinase functional assay (mobility shift), GSK3β; assay type: biochemical; details: read-out: GSK3β (% Inhib.); for inhibition at 1 µM: 1 µM compound, Table S3; for inhibition at 10 µM: 10 µM compound, Table S4
[2] = tested on: Akt; experiment: Kinase functional assay (mobility shift), Akt; assay type: biochemical
[3] = biological target: T1, ARTD4/PARP4 (Homo sapiens, UniProt Q9UKK3); experiment: ARTD profiling, ARTD4
T1 sequence (Q9UKK3 369-573 limits assumed): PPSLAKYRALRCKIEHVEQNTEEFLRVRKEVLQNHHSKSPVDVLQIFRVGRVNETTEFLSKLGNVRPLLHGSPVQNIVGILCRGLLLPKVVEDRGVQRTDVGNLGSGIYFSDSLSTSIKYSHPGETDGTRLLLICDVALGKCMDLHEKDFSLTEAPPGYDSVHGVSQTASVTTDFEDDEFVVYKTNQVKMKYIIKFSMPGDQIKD

[4] = biological target: CDK9 (Homo sapiens, UniProt P50750); experiment: Kinase functional assay (mobility shift), CDK9; assay type: biochemical; details: read-out: CDK9 (% Inhib.); for inhibition at 1 µM: 1 µM compound, Table S3; for inhibition at 10 µM: 10 µM compound, Table S4
[5] = tested on: Wnt/β-catenin signaling (TCF/LEF Reporter HEK293 Cell Line); experiment: Wnt signaling TCF/LEF reporter assay in HEK293 cells; assay type: cell-based, human; details: for Wnt (HEK293) inhibition at 1 µM: 1 µM compound; for inhibition at 1 µM: HEK293, 1 µM compound
Protocol: The Wnt assay was performed using a procedure modified from the BPS Bioscience protocol. Details are given in the Supplementary Methods. […]
The Wnt Signaling Pathway TCF/LEF Reporter HEK293 Cell Line (BPS Bioscience, catalog […]
Reporter HEK293 cells were grown at 37 °C with 5% CO2 using Dulbecco's Modified Eagle's Medium (DMEM, Sigma), supplemented with 10% of fetal bovine serum (Lonza), 1% non-essential amino acid (Sigma), 1X of penicillin and streptomycin (Sigma), and 400 µg/ml of Geneticin (Roche). Wnt-3a and L cells (ATCC) were cultured in Dulbecco’s modified Eagle’s medium supplemented with 10% fetal bovine serum, penicillin and streptomycin at 37 °C in a 5%
CO2. Wnt3a and control conditioned medium preparation has been described previously1. The Wnt assay was performed using a procedure modified from the BPS Bioscience protocol. 30,000 HEK293 cells/well in 40 µl of serum-free DMEM were plated on 96-well plate (white wells, clear […]
bottom, PerkinElmer). 10 µl of 50 mM LiCl in serum-free DMEM with 5x concentration of DMSO or tankyrase inhibitors was added. After 16 hours of incubation, 25 µl of Wnt3a or control conditioned medium supplemented with DMSO or tankyrase inhibitors was added on cells and cells were incubated for additional 24 hours. After the second incubation, the 96-well plates were balanced in room temperature for 30 minutes. Wnt3a induced luciferase activity was determined using ONE-Glo Luciferase Assay System (Promega) according to manufacturer’s protocol. […]
Difference Fourier method deriving the starting phases from 3U9H. The refinement of the structures was done with REFMAC5.5,6 Final manual building, analysis and visualization of the structures were made with Coot7 and PyMOL (www.pymol.org). All chemical structures were drawn with Marvin (Marvin 5.7.0 2011, ChemAxon, http://www.chemaxon.com). The docking studies were performed using GOLD software.8

[6] = biological target: ARTD1/PARP1 (Homo sapiens, UniProt P09874); experiment: ARTD profiling, ARTD1
[7] = biological target: ARTD2/PARP2 (Homo sapiens, UniProt Q9UGN5); experiment: ARTD profiling, ARTD2
[8] = biological target: ERK2 (Homo sapiens, UniProt P28482); experiment: Kinase functional assay (mobility shift), ERK2 (p42); assay type: biochemical; details: read-out: ERK2 (% Inhib.); for inhibition at 1 µM: 1 µM compound, Table S3; for inhibition at 10 µM: 10 µM compound, Table S4
[9] = biological target: T2, ARTD10/PARP10 (Homo sapiens, UniProt Q53GL7); experiment: ARTD profiling, ARTD10
T2 sequence (Q53GL7 806-1025 limits assumed): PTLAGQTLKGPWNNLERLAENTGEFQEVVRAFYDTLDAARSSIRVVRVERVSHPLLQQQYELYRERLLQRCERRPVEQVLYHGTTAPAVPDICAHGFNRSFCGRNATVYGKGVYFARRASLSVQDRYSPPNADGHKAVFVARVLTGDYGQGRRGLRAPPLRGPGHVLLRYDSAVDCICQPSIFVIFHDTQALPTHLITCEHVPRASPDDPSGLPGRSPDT

[10] = biological target: T3, ARTD7/PARP15 (Homo sapiens, UniProt Q460N3); experiment: ARTD profiling, ARTD7
T3 sequence (Q460N3 482-678 limits assumed): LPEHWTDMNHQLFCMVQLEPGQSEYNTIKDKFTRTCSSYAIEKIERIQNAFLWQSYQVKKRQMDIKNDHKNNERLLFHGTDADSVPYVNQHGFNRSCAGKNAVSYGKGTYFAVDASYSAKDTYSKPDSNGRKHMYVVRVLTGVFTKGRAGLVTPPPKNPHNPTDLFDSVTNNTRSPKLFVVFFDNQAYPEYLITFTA

[11] = biological target: T4, ARTD3/PARP3 (Homo sapiens, UniProt Q9Y6F1); experiment: ARTD profiling, ARTD3; assay type: biochemical; details: NAD+ 500 nM
T4 sequence (Q9Y6F1 1-533): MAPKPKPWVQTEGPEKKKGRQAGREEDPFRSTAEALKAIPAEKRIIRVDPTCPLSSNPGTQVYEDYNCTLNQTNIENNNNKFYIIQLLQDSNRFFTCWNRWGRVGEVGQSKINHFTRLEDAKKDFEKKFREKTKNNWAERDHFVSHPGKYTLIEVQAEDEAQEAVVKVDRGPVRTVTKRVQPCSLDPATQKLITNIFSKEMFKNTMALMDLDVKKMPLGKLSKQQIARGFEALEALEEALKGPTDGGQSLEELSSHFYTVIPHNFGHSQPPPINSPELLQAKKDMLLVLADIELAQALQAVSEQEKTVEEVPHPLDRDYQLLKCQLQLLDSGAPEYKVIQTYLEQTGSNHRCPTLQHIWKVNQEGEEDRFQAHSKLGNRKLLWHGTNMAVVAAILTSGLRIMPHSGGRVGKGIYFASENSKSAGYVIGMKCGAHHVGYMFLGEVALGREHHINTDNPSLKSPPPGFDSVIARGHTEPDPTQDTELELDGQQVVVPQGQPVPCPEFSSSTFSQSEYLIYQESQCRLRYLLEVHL
Protocol: Protein (nM) NAD+ (nM) Incubation Buffer
Kinase [ATP] Substrate Incubation Reaction buffer

[12] = Homo sapiens, TCF/LEF reporter HEK293

GSK3β, sequence (P49841 whole entry, species assumed): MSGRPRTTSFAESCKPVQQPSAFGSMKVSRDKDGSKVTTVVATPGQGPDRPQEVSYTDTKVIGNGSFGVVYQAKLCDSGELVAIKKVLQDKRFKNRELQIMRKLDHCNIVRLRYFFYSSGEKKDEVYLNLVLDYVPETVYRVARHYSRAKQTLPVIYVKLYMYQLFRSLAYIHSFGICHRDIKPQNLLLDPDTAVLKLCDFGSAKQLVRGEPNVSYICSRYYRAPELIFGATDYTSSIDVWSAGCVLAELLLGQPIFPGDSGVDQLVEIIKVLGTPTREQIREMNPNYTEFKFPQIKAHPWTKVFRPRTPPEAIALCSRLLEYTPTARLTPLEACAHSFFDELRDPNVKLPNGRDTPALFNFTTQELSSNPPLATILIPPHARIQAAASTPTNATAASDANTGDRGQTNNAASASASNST
CDK9, sequence (P50750 whole entry, species assumed): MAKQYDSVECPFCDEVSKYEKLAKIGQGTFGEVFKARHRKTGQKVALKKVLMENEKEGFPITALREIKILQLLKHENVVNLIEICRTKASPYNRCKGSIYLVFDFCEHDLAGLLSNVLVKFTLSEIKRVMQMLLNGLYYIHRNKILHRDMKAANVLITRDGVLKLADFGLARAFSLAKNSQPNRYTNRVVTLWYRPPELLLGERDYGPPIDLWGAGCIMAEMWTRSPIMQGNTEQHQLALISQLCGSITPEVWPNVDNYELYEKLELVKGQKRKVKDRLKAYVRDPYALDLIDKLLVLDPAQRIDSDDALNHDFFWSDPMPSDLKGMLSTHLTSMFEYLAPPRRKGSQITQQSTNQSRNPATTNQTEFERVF
CDK9, sequence (O60563 whole entry partner, species assumed): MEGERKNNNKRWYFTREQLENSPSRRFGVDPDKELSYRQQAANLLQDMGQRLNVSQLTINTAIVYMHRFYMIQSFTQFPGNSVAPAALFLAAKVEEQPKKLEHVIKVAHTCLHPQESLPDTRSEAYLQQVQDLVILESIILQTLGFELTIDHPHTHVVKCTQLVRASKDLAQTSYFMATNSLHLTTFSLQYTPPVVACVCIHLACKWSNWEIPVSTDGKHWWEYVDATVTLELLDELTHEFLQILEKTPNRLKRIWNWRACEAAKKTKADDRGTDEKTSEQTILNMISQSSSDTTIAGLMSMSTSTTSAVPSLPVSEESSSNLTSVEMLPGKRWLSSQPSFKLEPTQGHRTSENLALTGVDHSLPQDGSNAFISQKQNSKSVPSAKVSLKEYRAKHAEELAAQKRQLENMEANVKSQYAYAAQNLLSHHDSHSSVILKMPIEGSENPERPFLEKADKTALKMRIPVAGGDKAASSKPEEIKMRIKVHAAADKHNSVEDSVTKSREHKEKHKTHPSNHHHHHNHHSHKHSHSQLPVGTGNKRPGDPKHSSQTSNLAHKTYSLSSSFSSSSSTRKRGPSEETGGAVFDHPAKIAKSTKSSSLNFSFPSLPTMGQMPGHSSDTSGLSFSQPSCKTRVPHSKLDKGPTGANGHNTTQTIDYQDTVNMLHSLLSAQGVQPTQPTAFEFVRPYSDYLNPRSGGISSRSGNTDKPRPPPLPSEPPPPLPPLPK
ERK2, sequence (P28482 whole entry, species assumed): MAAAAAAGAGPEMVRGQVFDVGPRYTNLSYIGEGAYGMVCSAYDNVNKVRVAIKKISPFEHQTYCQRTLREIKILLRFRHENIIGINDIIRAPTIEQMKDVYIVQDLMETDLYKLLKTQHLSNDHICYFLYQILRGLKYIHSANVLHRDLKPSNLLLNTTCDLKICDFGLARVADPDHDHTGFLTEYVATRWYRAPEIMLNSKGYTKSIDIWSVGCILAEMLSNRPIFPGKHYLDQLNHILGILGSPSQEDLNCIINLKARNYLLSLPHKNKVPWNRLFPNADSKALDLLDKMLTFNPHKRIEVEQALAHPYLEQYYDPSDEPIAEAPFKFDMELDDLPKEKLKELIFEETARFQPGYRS
ARTD1/PARP1, sequence (P09874 whole entry): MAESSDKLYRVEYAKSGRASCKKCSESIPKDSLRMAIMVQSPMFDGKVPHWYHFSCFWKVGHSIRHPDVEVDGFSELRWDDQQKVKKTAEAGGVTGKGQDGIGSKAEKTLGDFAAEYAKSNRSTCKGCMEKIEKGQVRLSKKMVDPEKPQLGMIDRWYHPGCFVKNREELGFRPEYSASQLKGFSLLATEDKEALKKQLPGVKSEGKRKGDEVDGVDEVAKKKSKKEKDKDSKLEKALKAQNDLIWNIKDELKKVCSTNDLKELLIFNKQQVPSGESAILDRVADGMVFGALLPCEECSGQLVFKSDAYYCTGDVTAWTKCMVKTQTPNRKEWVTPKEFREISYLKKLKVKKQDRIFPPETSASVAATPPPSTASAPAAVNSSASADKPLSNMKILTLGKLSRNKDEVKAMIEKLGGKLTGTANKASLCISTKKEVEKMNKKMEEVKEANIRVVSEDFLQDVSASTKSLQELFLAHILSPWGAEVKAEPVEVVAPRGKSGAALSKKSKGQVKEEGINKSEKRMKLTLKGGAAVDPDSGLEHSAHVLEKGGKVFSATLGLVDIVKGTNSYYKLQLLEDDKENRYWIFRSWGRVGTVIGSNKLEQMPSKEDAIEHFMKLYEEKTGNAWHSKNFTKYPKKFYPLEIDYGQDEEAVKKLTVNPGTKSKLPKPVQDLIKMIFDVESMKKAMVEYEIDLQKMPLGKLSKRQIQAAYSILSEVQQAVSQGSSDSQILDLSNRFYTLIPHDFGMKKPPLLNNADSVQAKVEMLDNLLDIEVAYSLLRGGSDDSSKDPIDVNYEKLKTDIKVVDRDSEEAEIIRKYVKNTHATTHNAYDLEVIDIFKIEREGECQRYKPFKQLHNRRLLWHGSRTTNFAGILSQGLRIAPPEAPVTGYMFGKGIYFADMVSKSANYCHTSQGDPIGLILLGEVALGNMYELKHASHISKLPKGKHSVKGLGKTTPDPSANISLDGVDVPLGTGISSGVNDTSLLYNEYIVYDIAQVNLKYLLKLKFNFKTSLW
ARTD2/PARP2, sequence (Q9UGN5 whole entry): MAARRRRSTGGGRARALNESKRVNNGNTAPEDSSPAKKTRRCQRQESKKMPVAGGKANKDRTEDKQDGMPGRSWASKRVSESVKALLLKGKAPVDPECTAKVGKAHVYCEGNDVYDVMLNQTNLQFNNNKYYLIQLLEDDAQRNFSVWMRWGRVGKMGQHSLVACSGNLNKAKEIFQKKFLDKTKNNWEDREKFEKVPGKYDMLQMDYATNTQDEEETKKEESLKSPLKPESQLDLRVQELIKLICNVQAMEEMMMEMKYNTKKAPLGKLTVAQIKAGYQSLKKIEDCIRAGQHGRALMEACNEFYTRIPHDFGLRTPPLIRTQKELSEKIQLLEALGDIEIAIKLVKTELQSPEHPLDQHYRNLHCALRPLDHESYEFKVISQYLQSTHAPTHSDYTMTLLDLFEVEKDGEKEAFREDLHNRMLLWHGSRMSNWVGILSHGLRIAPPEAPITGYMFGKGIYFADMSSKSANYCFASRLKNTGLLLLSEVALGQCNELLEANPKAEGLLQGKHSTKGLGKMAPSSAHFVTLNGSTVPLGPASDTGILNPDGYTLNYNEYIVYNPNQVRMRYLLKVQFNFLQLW

Structure (SMILES) | inhibition at 1 µM [1] [%] | inhibition at 10 µM [1] [%] | AKT (% Inhib.) ([2]; 1 µM compound, Table S3) [%] | AKT (% Inhib.) ([2]; 10 µM compound, Table S4) [%] | IC50 [3] [µM] | inhibition at 1 µM [4] [%] | inhibition at 10 µM [4] [%] | Wnt (HEK293) inhibition at 1 µM ([5]; TCF/LEF reporter HEK293) [%] | inhibition at 1 µM [5, 12] [%] | IC50 [5, 12] [µM] | IC50 [6] [µM] | IC50 [7] [µM] | inhibition at 1 µM [8] [%] | inhibition at 10 µM [8] [%] | IC50 [9] [µM] | IC50 [10] [µM] | IC50 [11] [µM] | Effect on Wnt/β-catenin signaling at lower concentrations ([5]; concentrations below 1 µM)
O=c1[nH]c(-c2ccc(N3CCCCC3)cc2)nc2ccccc12 [Compound 30] | 1 ± 1 | 11 ± 3 | 1 ± 1 | 2 ± 2 | 12 | 12 ± 4 | 31 ± 4 | > 50 | 61 | 0.57 | 18 | 8.6 | 2 ± 1 | 3 ± 1 | > 10 | > 10 | 23 | 
CCN(CC)c1ccc(-c2nc3ccccc3c(=O)[nH]2)cc1 [Compound 32] | 1 ± 1 | 4 ± 4 | 1 ± 1 | 48 ± 4 | 5.5 | 13 ± 4 | 16 ± 3 | 63 | > 50 |  | 30 | 24 | 2 ± 1 | 18 ± 3 | > 10 | > 10 | 2.1 | activated Wnt/β-catening signaling
